From publication PMC4980083 (JCI insight, 2016)

Experiments:
[1] = test system: PC3 cells; assay: PC3 proliferation/viability; assay type: cell-based, human; conditions: up to 10 times the IC50 required to reduce AR-dependent proliferation; 3 days
[2] = biological target: T1, PR LBD (Homo sapiens, UniProt P06401); assay: Fluorescence polarization competition binding, PR LBD
T1 sequence (P06401 679-913 limits assumed): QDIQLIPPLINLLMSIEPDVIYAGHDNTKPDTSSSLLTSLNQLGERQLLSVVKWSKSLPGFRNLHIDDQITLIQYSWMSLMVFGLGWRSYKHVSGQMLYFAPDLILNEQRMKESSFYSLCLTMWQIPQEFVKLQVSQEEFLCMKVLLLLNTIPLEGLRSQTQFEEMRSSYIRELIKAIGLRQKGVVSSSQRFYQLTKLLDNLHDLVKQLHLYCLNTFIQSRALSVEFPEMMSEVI

[3] = biological target: T2, GR LBD (Homo sapiens, UniProt P04150); assay: Fluorescence polarization competition binding, GR LBD
T2 sequence (P04150 524-758 limits assumed): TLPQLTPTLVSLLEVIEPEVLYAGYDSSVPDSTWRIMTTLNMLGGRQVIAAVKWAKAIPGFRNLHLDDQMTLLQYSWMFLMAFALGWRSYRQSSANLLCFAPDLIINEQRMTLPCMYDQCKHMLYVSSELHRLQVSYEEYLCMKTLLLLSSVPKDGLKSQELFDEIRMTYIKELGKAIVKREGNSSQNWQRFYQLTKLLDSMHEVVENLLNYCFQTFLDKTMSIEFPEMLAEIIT

[4] = test system: LNCaP95 cells; assay: LNCaP95 proliferation, BrdU incorporation; assay type: cell-based, human; conditions: I-EPI-002 2 μM, EPI-002 25 μM, enzalutamide 5 μM; 2 days
[5] = biological target: T3, full-length AR and AR-V567es (Homo sapiens, UniProt P10275); assay: Probasin luciferase activity in LNCaP cells, full-length AR and AR-V567es; conditions: I-EPI-002 2 μM, enzalutamide 5 μM; presence or absence of androgen
T3 sequence (P10275 1-920): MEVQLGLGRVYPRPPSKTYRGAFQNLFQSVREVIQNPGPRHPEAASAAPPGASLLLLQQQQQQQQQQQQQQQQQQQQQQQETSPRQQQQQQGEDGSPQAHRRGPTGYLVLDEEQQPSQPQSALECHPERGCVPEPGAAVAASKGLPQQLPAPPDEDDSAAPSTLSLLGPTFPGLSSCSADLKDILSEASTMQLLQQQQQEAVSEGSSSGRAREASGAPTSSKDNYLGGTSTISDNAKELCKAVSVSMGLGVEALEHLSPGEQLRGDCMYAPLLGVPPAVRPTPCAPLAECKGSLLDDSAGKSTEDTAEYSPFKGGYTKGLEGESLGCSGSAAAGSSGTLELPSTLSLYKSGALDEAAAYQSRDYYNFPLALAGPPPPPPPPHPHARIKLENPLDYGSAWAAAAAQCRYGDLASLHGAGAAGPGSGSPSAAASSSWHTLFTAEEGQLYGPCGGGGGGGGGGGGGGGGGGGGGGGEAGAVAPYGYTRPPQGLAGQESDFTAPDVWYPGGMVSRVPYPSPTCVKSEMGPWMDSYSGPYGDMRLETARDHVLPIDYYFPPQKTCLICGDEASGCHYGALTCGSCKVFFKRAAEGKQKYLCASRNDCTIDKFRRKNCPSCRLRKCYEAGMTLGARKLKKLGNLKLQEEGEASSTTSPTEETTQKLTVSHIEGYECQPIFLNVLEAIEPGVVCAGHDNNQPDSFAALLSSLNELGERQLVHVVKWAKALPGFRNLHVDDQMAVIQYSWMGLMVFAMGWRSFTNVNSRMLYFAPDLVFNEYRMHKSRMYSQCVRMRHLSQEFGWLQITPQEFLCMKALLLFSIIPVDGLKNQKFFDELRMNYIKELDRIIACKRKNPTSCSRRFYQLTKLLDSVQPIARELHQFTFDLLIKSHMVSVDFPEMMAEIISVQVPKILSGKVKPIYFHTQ
T3 sequence (P10275 with tags, fused parts or gaps limits assumed): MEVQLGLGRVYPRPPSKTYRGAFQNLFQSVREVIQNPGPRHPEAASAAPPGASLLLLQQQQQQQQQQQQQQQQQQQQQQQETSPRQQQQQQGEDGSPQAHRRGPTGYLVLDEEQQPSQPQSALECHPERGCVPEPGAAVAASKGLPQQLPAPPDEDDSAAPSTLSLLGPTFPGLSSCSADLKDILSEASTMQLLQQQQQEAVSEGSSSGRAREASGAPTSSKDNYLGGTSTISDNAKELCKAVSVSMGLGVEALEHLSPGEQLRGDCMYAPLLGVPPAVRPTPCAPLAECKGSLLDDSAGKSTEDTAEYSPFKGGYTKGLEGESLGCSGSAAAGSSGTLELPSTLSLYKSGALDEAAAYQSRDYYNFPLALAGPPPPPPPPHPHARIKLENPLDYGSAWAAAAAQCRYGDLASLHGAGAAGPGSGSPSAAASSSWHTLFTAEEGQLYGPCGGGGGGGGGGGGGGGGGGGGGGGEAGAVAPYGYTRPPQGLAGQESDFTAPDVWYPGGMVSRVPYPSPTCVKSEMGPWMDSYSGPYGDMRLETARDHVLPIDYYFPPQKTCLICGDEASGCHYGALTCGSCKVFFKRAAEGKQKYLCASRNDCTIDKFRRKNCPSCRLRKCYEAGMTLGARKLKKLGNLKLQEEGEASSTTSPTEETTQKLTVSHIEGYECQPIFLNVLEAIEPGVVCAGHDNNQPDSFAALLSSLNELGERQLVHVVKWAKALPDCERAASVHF

15-IodoEPI002 [I-EPI-002]
effect on proliferation or viability of PC3 cells [1]: no effect
competition for ligand binding to PR LBD [2]: did not prevent ligand-binding
competition for ligand binding to GR LBD [3]: did not prevent ligand-binding
effect on proliferation of LNCaP95 cells [4]: decreased proliferation
inhibition of probasin luciferase activity, full-length AR with V567es [5]: showed good inhibition
